# Reference: ChEMBL document CHEMBL1909046, “DrugMatrix in vitro pharmacology data”
# How the values were obtained:
# [1] = DRUGMATRIX: GABAA, Muscimol, Central radioligand binding (ligand: [3H] Muscimol); assay type: cell membranes, Rattus norvegicus, Wistar, Brain, Membrane; settings: Not Active = under 50% inhibition at 10 µM
# [2] = molecular target: Mitogen-activated protein kinase 1 (Homo sapiens, UniProt P28482); test: DRUGMATRIX: Protein Serine/Threonine Kinase, ERK2 enzyme inhibition (substrate: Myelin Basic Protein); parameters: species or system Escherichia coli; settings: Not Active = under 50% inhibition at 10 µM
# [3] = molecular target: Cytochrome P450 2E1 (Homo sapiens, UniProt P05181); settings: bti-tn-5b1-4; also: in other assays of this panel Not Active means under 50% inhibition at 10 µM
# [4] = molecular target: T1, 3-hydroxy-3-methylglutaryl-coenzyme A reductase (Homo sapiens, UniProt P04035); parameters: species or system Escherichia coli;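 also: enzyme inhibition assay of HMG-CoA reductase using radiolabeled [14C]HMG-CoA as substrate; in other assays of this panel Not Active means under 50% inhibition at 10 µM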
# T1 sequence (P04035 whole entry): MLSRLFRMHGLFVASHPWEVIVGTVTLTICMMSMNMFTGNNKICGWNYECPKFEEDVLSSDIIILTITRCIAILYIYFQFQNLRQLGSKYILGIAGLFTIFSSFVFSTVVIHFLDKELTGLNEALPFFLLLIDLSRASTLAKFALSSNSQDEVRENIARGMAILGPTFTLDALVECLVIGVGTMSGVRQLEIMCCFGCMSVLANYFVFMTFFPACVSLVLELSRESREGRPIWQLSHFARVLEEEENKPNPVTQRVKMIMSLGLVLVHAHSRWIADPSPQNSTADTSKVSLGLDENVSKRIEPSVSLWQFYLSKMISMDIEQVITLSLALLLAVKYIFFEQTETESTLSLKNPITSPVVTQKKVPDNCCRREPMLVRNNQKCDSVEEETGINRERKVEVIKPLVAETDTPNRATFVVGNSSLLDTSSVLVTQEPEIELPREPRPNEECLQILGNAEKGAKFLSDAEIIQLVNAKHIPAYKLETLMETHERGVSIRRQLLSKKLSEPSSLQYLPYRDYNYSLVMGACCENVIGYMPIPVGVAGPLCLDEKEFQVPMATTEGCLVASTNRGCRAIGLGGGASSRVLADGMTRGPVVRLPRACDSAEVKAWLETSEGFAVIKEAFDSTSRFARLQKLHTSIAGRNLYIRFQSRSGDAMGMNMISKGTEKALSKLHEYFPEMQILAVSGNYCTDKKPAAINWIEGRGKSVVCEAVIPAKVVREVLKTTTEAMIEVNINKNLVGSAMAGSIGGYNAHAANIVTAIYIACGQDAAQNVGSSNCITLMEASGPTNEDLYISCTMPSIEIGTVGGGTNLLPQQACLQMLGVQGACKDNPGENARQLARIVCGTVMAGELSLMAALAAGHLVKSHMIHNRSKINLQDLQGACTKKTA
# [5] = molecular target: 5-hydroxytryptamine receptor 6 (Homo sapiens, UniProt P50406); assay type: cell membranes, HeLa, Membrane; also: in other assays of this panel Not Active means under 50% inhibition at 10 µM
# [6] = molecular target: C-C chemokine receptor type 5 (Homo sapiens, UniProt P51681); assay type: cell membranes, Membrane; settings: hek293; also: in other assays of this panel Not Active means under 50% inhibition at 10 µM
# [7] = molecular target: T2, Leukotriene C4 synthase (Cavia porcellus, UniProt A6XA80); assay type: tissue-based, Lung
# T2 sequence (A6XA80 whole entry): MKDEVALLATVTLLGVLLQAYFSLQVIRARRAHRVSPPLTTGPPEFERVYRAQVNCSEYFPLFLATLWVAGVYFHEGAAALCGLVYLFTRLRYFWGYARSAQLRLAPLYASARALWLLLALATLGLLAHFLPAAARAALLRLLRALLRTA
# [8] = molecular target: Cytochrome P450 2C9 (Homo sapiens, UniProt P11712); settings: bti-tn-5b1-4; also: in other assays of this panel Not Active means under 50% inhibition at 10 µM
# Sequence of Cytochrome P450 2C9 (P11712 whole entry): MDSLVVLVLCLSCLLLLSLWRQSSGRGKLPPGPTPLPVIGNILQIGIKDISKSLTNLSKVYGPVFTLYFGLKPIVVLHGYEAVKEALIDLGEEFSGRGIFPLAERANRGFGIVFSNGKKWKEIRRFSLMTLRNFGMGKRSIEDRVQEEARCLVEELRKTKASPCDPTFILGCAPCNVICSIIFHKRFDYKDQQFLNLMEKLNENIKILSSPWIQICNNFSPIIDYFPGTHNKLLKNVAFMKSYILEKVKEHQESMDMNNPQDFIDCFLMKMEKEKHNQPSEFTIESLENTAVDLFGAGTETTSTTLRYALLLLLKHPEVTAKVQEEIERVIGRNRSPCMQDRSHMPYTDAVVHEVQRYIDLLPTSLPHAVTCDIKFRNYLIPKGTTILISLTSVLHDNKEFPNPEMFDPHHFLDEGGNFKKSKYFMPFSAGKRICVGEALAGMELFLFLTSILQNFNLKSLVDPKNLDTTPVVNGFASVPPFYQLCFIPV
# Sequence of 5-hydroxytryptamine receptor 6 (P50406 whole entry): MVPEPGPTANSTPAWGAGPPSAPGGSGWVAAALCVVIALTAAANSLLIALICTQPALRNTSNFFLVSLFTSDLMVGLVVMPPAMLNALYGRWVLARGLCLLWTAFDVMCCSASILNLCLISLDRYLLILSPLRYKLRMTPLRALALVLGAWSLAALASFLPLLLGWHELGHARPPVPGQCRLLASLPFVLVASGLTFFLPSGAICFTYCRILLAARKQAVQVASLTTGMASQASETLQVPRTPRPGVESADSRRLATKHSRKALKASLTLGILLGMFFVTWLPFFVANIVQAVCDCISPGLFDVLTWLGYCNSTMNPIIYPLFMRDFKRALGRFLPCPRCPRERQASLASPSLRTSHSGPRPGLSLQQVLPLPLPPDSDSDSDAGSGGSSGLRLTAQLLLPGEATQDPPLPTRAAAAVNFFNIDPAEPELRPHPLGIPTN
# Sequence of C-C chemokine receptor type 5 (P51681 whole entry): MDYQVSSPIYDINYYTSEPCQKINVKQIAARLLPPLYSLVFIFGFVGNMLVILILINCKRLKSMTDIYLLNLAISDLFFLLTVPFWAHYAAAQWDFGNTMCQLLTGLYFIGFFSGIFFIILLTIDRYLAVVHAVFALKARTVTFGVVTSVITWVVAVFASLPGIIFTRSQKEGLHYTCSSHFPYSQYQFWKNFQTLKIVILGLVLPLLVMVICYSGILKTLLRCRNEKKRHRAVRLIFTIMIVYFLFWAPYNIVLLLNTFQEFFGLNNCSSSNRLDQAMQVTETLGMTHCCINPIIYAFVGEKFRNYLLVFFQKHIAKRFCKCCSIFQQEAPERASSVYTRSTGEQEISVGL
# Sequence of Mitogen-activated protein kinase 1 (P28482 whole entry): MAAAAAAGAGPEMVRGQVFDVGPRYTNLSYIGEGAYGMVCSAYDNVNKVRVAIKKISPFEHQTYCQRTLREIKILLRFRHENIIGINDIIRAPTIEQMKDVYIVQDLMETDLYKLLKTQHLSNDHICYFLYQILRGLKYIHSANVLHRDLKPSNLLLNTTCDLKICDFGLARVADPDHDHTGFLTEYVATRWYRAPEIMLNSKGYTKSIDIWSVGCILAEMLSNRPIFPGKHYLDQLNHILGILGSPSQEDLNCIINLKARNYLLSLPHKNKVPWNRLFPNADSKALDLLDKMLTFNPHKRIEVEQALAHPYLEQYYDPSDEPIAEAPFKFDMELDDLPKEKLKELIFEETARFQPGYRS
# Sequence of Cytochrome P450 2E1 (P05181 whole entry): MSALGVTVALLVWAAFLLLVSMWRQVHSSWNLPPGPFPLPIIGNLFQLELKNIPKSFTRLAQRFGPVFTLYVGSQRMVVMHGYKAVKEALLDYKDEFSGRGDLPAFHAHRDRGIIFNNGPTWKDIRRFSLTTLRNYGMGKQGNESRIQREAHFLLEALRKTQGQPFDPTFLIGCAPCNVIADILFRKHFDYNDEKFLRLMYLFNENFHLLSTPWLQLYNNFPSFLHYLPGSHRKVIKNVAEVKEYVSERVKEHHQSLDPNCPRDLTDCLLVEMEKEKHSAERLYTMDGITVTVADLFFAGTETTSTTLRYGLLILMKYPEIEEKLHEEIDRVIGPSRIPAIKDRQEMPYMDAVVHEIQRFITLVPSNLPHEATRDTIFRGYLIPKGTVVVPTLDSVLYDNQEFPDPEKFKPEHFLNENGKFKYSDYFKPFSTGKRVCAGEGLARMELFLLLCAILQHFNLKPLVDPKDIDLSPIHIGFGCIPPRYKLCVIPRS
SMILES,IC50 [1],Ki [1],IC50 [2],IC50 [3],Ki [3],IC50 [4],IC50 ([5]; hela),IC50 [6],IC50 [7],IC50 [8],Ki [8],IC50 ([5]; read-out: IC50) [nM],Ki ([5]; read-out: Ki) [nM]
CCOc1nc2cccc(C(=O)O)c2n1Cc1ccc(-c2ccccc2-c2nnn[nH]2)cc1,Not Active,Not Active,Not Active,Not Active,Not Active,Not Active,Not Active,Not Active,Not Active,,,,
O=C(O)CCCc1cccs1,Not Active,Not Active,Not Active,Not Active,Not Active,Not Active,Not Active,Not Active,Not Active,Not Active,Not Active,,
COc1ccccc1N,Not Active,Not Active,Not Active,Not Active,Not Active,Not Active,Not Active,Not Active,Not Active,Not Active,Not Active,,
O=C(c1ccccc1F)N1CCC(Cc2ccccc2)CC1,Not Active,Not Active,Not Active,Not Active,Not Active,Not Active,Not Active,Not Active,Not Active,,,,
Cc1c(O)cccc1C(=O)N[C@@H](CSc1ccccc1)[C@H](O)CN1C[C@H]2CCCC[C@H]2C[C@H]1C(=O)NC(C)(C)C,Not Active,Not Active,Not Active,Not Active,Not Active,Not Active,Not Active,Not Active,Not Active,Not Active,Not Active,,
CC(O)COC[C@H]1O[C@@H]2O[C@H]3[C@H](O)[C@@H](O)[C@@H](O[C@H]4[C@H](O)[C@@H](O)[C@@H](O[C@H]5[C@H](O)[C@@H](O)[C@@H](O[C@H]6[C@H](O)[C@@H](O)[C@@H](O[C@H]7[C@H](O)[C@@H](O)[C@@H](O[C@H]8[C@H](O)[C@@H](O)[C@@H](O[C@H]1[C@H](O)[C@H]2O)O[C@@H]8COCC(C)O)O[C@@H]7COCC(C)O)O[C@@H]6COCC(C)O)O[C@@H]5COCC(C)O)O[C@@H]4COCC(C)O)O[C@@H]3COCC(C)O (stereo partly drawn) [2-HYDROXYPROPYL-BETA-CYCLODEXTRIN],Not Active,Not Active,Not Active,Not Active,Not Active,Not Active,Not Active,Not Active,Not Active,Not Active,Not Active,,
NC(=O)c1cccc(N)c1 [3-AMINOBENZAMIDE],Not Active,Not Active,Not Active,Not Active,Not Active,Not Active,Not Active,Not Active,Not Active,Not Active,Not Active,,
C[C@H]1O[C@H](O[C@H]2[C@H](O)[C@@H](O)[C@@H](O[C@H]3[C@H](O)[C@@H](O)C(O)O[C@@H]3CO)O[C@@H]2CO)[C@H](O)[C@@H](O)[C@@H]1N[C@H]1C=C(CO)[C@@H](O)[C@H](O)[C@H]1O (stereo partly drawn) [ACARBOSE],Not Active,Not Active,Not Active,Not Active,Not Active,Not Active,Not Active,Not Active,Not Active,Not Active,Not Active,,
NC12CC3CC(CC(C3)C1)C2 [AMANTADINE],Not Active,Not Active,Not Active,,,Not Active,Not Active,Not Active,Not Active,,,,
CC(C)c1c(C(=O)Nc2ccccc2)c(-c2ccccc2)c(-c2ccc(F)cc2)n1CC[C@@H](O)C[C@@H](O)CC(=O)O [ATORVASTATIN],Not Active,Not Active,Not Active,Not Active,Not Active,,Not Active,Not Active,Not Active,,,,
ClC(Cl)(Cl)Cl [CARBON TETRACHLORIDE],Not Active,Not Active,Not Active,,,Not Active,Not Active,Not Active,Not Active,Not Active,Not Active,,
CO/N=C(\C(=O)N[C@@H]1C(=O)N2C(C(=O)O)=C(COC(C)=O)CS[C@H]12)c1csc(N)n1 [CEFOTAXIME],Not Active,Not Active,,Not Active,Not Active,Not Active,Not Active,Not Active,Not Active,Not Active,Not Active,,
CC(C)C[C@H]1C(=O)N2CCC[C@H]2[C@]2(O)O[C@](NC(=O)[C@@H]3C=C4c5cccc6[nH]cc(c56)C[C@H]4N(C)C3)(C(C)C)C(=O)N12 [ERGOCRYPTINE],Not Active,Not Active,Not Active,Not Active,Not Active,Not Active,,Not Active,Not Active,,,16,7.56
CC(C)(C(=O)O)c1ccc(C(O)CCCN2CCC(C(O)(c3ccccc3)c3ccccc3)CC2)cc1 (stereo not drawn) [FEXOFENADINE],Not Active,Not Active,Not Active,Not Active,Not Active,Not Active,Not Active,Not Active,Not Active,,,,
CC(=O)OCC(=O)[C@@]12OC(C)(C)O[C@@H]1C[C@H]1[C@@H]3C[C@H](F)C4=CC(=O)C=C[C@]4(C)[C@@]3(F)[C@@H](O)C[C@@]12C [FLUOCINONIDE],Not Active,Not Active,Not Active,,,Not Active,Not Active,Not Active,Not Active,,,,
CCC1=C(C)CN(C(=O)NCCc2ccc(S(=O)(=O)NC(=O)N[C@H]3CC[C@H](C)CC3)cc2)C1=O [GLIMEPIRIDE],Not Active,Not Active,Not Active,Not Active,Not Active,Not Active,Not Active,Not Active,Not Active,,,,
N[C@@H](Cn1ccc(=O)c(O)c1)C(=O)O [L-MIMOSINE],Not Active,Not Active,Not Active,,,Not Active,Not Active,Not Active,Not Active,,,,
CC(C)(C)NCC(O)COc1cccc2c1CC(O)C(O)C2 (stereo not drawn) [NADOLOL],Not Active,Not Active,Not Active,Not Active,Not Active,Not Active,Not Active,Not Active,Not Active,,,,
C[C@@H]1C/C=C/C=C/C=C/C=C/[C@H](O[C@@H]2O[C@H](C)[C@@H](O)[C@H](N)[C@@H]2O)C[C@@H]2O[C@](O)(C[C@@H](O)C[C@H]3O[C@@H]3/C=C/C(=O)O1)C[C@H](O)[C@H]2C(=O)O [NATAMYCIN],Not Active,Not Active,Not Active,,,Not Active,Not Active,Not Active,Not Active,,,,
COc1ccc2c(c1OC)C(=O)O[C@@H]2[C@H]1c2c(cc3c(c2OC)OCO3)CCN1C [NOSCAPINE],Not Active,Not Active,Not Active,Not Active,Not Active,Not Active,Not Active,Not Active,Not Active,,,,
N=C(N)c1ccc(OCCCCCOc2ccc(C(=N)N)cc2)cc1 [PENTAMIDINE],Not Active,Not Active,Not Active,Not Active,Not Active,Not Active,Not Active,Not Active,Not Active,,,,
NNCCc1ccccc1 [PHENELZINE],Not Active,Not Active,Not Active,Not Active,Not Active,Not Active,Not Active,Not Active,Not Active,,,,
